From paper PMC6272685, “Docking and Antiherpetic Activity of 2-Aminobenzo[de]-isoquinoline-1,3-diones” (Molecules, 2015)
Values after ≈ are worked out from the molar mass of the structure shown. Where two headings read alike, the source gives them in different places.

How the values were obtained:
[1] = tested on: HSV-2; assay: cytopathic effect inhibition assay against HSV-2 in Vero cells; format: cell-based, herpes simplex virus 2 (G strain); settings: 48 h, read-out: HSV-2 EC50
Procedure: (§1) Vero cells (derived from the kidney of a normal African green monkey) were obtained from the American Type Culture Collection (ATCC, Manassas, VA, USA). The viral strains used were GHSV-UL46 for HSV-1 and the G strain for HSV-2. The Vero cells were propagated in Dulbecco’s modified Eagle’s medium (DMEM) supplemented with 10% heat-inactivated foetal bovine serum (FBS), 1% L-glutamine, HEPES buffer and 50 µg/mL gentamycin. All cells were maintained at 37 °C in a humidified atmosphere with 5% CO2 and were subcultured two times a week.
(§2) The antiviral screening was performed using a cytopathic effect inhibition assay at the Regional Center for Mycology and Biotechnology (RCMB, Al-Azhar University, Cairo, Egypt). This assay was selected to show specific inhibition of a biological function, that is, a cytopathic effect in susceptible mammalian cells. In brief, monolayers of 10,000 Vero cells adhering at the bottom of the wells in a 96-well microtiter plate were incubated for 24 h at 37 °C in a humidified incubator with 5% CO2. The plates were washed with fresh DMEM and challenged with 10^4 doses of herpes simplex 1 or 2 virus, and then the cultures were simultaneously treated with two-fold serial dilutions of the tested compound, starting from 500 µg/mL and going up to about 2 µg/mL (500, 250, 125, 62.5, …, 1.95 µg/mL) in a fresh maintenance medium; following this, they were incubated at 37 °C for 48 h. An infection control, as well as an untreated Vero cell control were made in the absence of tested compounds. […] Antiviral activity was determined by the inhibition of the cytopathic effect compared to a control, that is, the protection offered by the tested compound to the cells was scored. Three independent experiments were assessed, each containing four replicates per treatment.
(§3) After the incubation period, the media was aspirated, and then the cells were stained with a 1% crystal violet solution for 30 min. Thereafter, all excess stain was removed by rinsing the plates with tap water. The plates were allowed to dry, and then glacial acetic acid (30%) was added to all wells and mixed thoroughly. The absorbance of the plates was measured after gentle shaking on a microplate reader (Tecan Inc., Morrisville, NC, USA), at 590 nm. The viral inhibition rate was calculated as follows: [(ODtv − ODcv)/(ODcd − ODcv)] × 100% where ODtv, ODcv and ODcd indicate the absorbance of the tested compounds with virus-infected cells, the absorbance of the virus control and the absorbance of the cell control, respectively.
EC50 values were determined directly from the curve obtained by plotting the inhibition of the virus yield against the concentration of the samples. The selectivity index (SI) was calculated from the ratio of CC50 to EC50 in order to determine whether each compound had sufficient antiviral activity that exceeded its level of toxicity. This index is referred to as a therapeutic index, and it was also used to determine whether a compound warranted further study.

[2] = cytotoxicity evaluation using viability assay (crystal violet); format: cell-based, African green monkey; settings: African green monkey, Vero cells
Procedure: as §1
The Vero cell lines in the cytotoxicity assay were seeded in 96-well plates at a cell concentration of 1 × 10^4 cells per well in 100 µL of the growth medium. Fresh medium containing different concentrations of the tested sample was added after 24 h of seeding. Serial two-fold dilutions of the tested compound were added to confluent cell monolayers dispensed into 96-well, flat-bottomed microtiter plates (Falcon, Jersey, NJ, USA) using a multichannel pipette. The microtiter plates were incubated at 37 °C in a humidified incubator with 5% CO2 for a period of 48 h. Three wells were used for each concentration of the tested sample. Control cells were incubated without test samples and with or without DMSO. The small percentage of DMSO present in the wells (maximal 0.1%) was not found to affect the experiment.
After the end of the incubation period, the viable cell yield was determined by a colorimetric method. In brief, the process of treatment the media with crystal violet solution and measurement of absorbance at 590 nm using a microplate reader was mentioned above. The absorbance was proportional to the number of surviving cells in the culture plate. All the results were corrected for background absorbance detected in wells without added stain. Treated samples were compared with the cell control in the absence of the tested compounds. All experiments were carried out in triplicate. The cell cytotoxicity effect of each tested compound was calculated.
Statistics were done using a one-way ANOVA test, and the percentage cell viability was calculated using Microsoft Excel®, as follows: % Cell viability = [(Mean Abscontrol− Mean Abstest metabolite)/Mean Abscontrol] × 100 where Abs equals the absorbance at 590 nm. The CC50 was estimated from graphic plots and the STATA statistical analysis package was used for the drawing of the dose response curve, in order to calculate CC50. Concerning antiviral evaluation, all experiments and data analysis were performed in RCMB, Al-Azhar University, Cairo, Egypt.

[3] = tested on: HSV-1; assay: cytopathic effect inhibition assay against HSV-1 in Vero cells; format: cell-based, herpes simplex virus 1 (GHSV-UL46); settings: Human alphaherpesvirus 1, Vero, 48 h, read-out: HSV-1 EC50
Procedure: as §1, §2, §3
EC50 values were determined directly from the curve obtained by plotting the inhibition of the virus yield against the concentration of the samples. […] This index is referred to as a therapeutic index, and it was also used to determine whether a compound warranted further study.

| Structure (SMILES) | EC50 ([1]; Human alphaherpesvirus 2, Vero) | CC50 at 48 h [2] | EC50 [3] | EC50 ([1]; Human alphaherpesvirus 2, Vero cells, cytopathic effect inhibition) |
| --- | --- | --- | --- | --- |
| NN1C(=O)c2cccc3cccc(c23)C1=O [Parent, 2-amino-1H-benzo[de]isoquinoline-1,3-dione] | > 500 µg/mL | 320 ± 24 µg/mL (≈ 1510 µM) | > 500 µg/mL | – |
| Nc1nc2c(ncn2COCCO)c(=O)[nH]1 [Acyclovir, reference compound] | – | 600 ± 18 µg/mL (≈ 2660 µM) | 1.8 ± 0.2 µg/mL (≈ 7.99 µM) | 3.4 ± 0.6 µg/mL (≈ 15.1 µM) |
